This note sets out measurements from patent US10669545B2, “Tumor cell malignant transformation suppressor and anti-tumor agent” (JAPAN SCIENCE AND TECHNOLOGY AGENCY, priority 2015, dated 2020).

Holding throughout (assay type): cell-based, human
Series [1] has as its system A375 cells. Description: Cell morphology after siRNA transfection, A375 cells. As to conditions: not shown.
Another series relates to SK-MEL-28 cells. The series is described as follows: Cell morphology after siRNA transfection, SK-MEL-28 cells. As to conditions: not shown.
The subject of series [2] is stably Zic5 gene-expressed line (SK-MEL-28 cells). The series is described as follows: Transwell Migration Assay, stably Zic5 gene-expressed line. To be noted: normalized to total viable cells; siNeg#1 set to 1. As for the experimental part:
Specifically, the stably Zic5 gene-expressed line and the stably Flag-expressed line were seeded in a 24-well plate into which an insert with 8-μm sized pores (manufactured by BD Biosciences) was put and were cultured in RPMI 1640 medium containing 10% FBS, and then the number of migrated cells was counted.
The influence of suppressing MLC2 phosphorylation on migration ability of cells was analyzed. Specifically, Transwell Migration Assay was performed in the same manner as above with the stably Zic5 gene-expressed line and the stably Flag-expressed line in a state of being treated or non-treated with a ROCK inhibitor (Y27632), and then the number of migrated cells was counted.
The number of migrated cells was normalized to a total number of viable cells. A relative cell number (n=3) in which the number of migrated cells transfected with siNeg#1 of each cell was set to 1 is shown in FIG. 29. The statistical difference was determined by the Tukey's multiple comparisons of means test (**: P<0.01, *: P<0.05).

For series [3], the system named is A375 cells. Description: Cell proliferation / cell number count, A375 cells. As for the experimental part: In cell proliferation assay, A375 cells and SK-MEL-28 cells transfected with siZIC5#1, siZIC5#2, siNeg#1, or siNeg#2 described in Table 2 in the same manner as Example 1 were plated at 1,000 to 2,000 cells/well in 96-well plates. The number of cells transfected with each siRNA was measured over time. Regarding counting the number of cells, cell nuclei were stained with Hoechst 33342 (manufactured by Dojindo, Kumamoto, Japan), and the total cell number in each well was counted by using an IN Cell Analyzer 2000 (manufactured by GE Healthcare, Piscataway, N.J.).
Furthermore, a cell cycle of each cell was examined with respect to A375 cells. An average value (SD) of percentages (%) of cells in G1 population, S population, and G2M population of each cell is shown in Table 9. […] As a result, percentages of cells in the S population and G2M population of A375 cells were reduced by PDGFD gene knockdown.
In addition, the number of cells of A375 cells transfected with siPDGFD#1, siPDGFD#2, or siNeg#1 was successively counted. The statistical difference was determined using the Dunnett's multiple comparisons of means test (**: P<0.01, *: P<0.05).
The result of a relative cell number (n=3) in which the number of cells of the cells treated with rat IgG was set to 1 is shown in FIG. 28. […]

Series [4] concerns DU145 cells. The series is described as follows: Cell number count, DU145 cells. To be noted: 0, 2, or 3 days after transfection. An excerpt: First, DU145 cells were transfected with siZIC5#1, siZIC5#2, siNeg#1, or siNeg#2 described in Table 2 in the same manner as Example 1, and the number of cells 0, 2, or 3 days after transfection was counted. The result of calculating a relative cell number of each cell (the number of cells on 0th day after transfection (before transfection) was set to 1) (n=3) is shown in FIG. 44.
The result of calculating a relative cell number of each cell (the number of cells on 0th day after transfection (before transfection) was set to 1) (n=3) is shown in FIG. 47.

Series [5] concerns DU145 cells. The series is described as follows: Annexin V-positive cells, DU145 cells. To be noted: siRNA then docetaxel 5 nM for 24 hours. As for the experimental part:
(§1) The percentage of Annexin V-positive cells was measured as follows. First, FITC labeled Annexin V (manufactured by MBL, Nagoya, Japan) and Hoechst33342 were added to each cell and incubated for 40 minutes. Next, a stained state of the incubated cells was analyzed by using DAPI filter and FITC filter of an imaging cytometer, “In Cell Analyzer 2000” (manufactured by GE healthcare). Percentage (%) of […] was determined by In Cell Analyzer Workstation 3.7 (manufactured by GE healthcare). The statistical difference was determined by the Tukey's multiple comparisons of means test (**: P<0.01, *: P<0.05).

The next series has as its system vemR-3 cells. Description: Annexin V-positive cells, vemR-3 cells. To be noted: vs siNeg. The protocol: as §1
A percentage of apoptotic cells in the obtained cells was detected by using FITC labeled Annexin V (manufactured by MBL, Nagoya, Japan) in the same manner as Example 7.

As for “siPDGFD#1: siRNA for PDGFD gene; targeting sequence CAGGAATTACTCGGTCAATAT (SEQ. NO. 28) (listed as DNA, chemistry not given here)”, the “morphological change of cells after siRNA transfection” value in the series with A375 cells [1] and with SK-MEL-28 cells was “morphological change occurred” each time. The “increase in the number of migrated cells by Zic5 gene overexpression” value in series [2] was “completely suppressed”. For the same substance, in the series with A375 cells [3], the “relative cell number (siNeg#1 set to 1), cell proliferation rate” value was “decrease in cell proliferation rate”. Besides, the “relative cell number (0th day set to 1), cell proliferation rate” value in the series with DU145 cells [4] is on record as “decreased”. For the same substance, in the series with DU145 cells [5], the “apoptosis induced by docetaxel (percentage of Annexin V-positive cells)” value is “significantly increased”. The “percentage of Annexin V-positive cells” value in the series with vemR-3 cells is reported as “significantly increased”.
